# Measured values published in patent US10548894B2, “Combination therapy” (Array BioPharma Inc., priority 2013, dated 2020).
# pIC50: −log10 of the molar value. Read-outs that look alike come from different tables or passages of the source.
# Columns and labels:
# Assay in all cases: CellTiter-Glo proliferation assay 72 hrs, with or without FGF2
# Type in all cases: cell-based
# MDST8 = MDST8 (V600K)
# Protocol: (§1) All cell lines were purchased from ATTC (SK-MEL-5, SK-MEL-24, UACC-62, COLO 741, COLO-800, WM-266-4, Colo205, LS411N, SW 1417), ECACC (MDST8), DSMZ (CL-34) and NCI (LOX IMVI). […] Cell lines were cultured in 37° C. and 5% CO2 incubator and expanded in T-75 flasks. In all cases cells were thawed from frozen stocks, expanded through passage using 1:3 dilutions, counted and assessed for viability using a ViCell counter (Beckman-Coulter), prior to plating in 96-well or 6-well plates. To split and expand cell lines, cells were dislodged from flasks using 0.25% Trypsin-EDTA (GIBCO, Catalog number 25200). All cell lines were determined to be free of mycoplasma contamination as determined by a PCR detection methodology performed at Idexx Radii (Columbia, Mo., USA) and correctly identified by detection of a panel of SNPs.
# (§2) The Compound of Formula (I) and Compound H dissolved in 100% DMSO (Cellgro, catalog number 25-290-CQC) at concentrations of 10 mM and stored at −20° C. until use. Compounds were arrayed in 2 ml deep 96-well plates (Greiner bio-one, catalog number 780271) serially diluted 3-fold seven times yielding concentration ranges from 22 nM to 16200 nM. Recombinant Human FGF basic was purchased from R&D system (Catalog number 233-FB), and reconstituted at 50 μg/ml in sterile PBS. It was used at a fixed concentration 100 ng/ml in all experiments.
# (§3) For CellTiter-Glo™ assays, cells were dispensed into tissue culture treated 96-well plates (Costar, catalog number 3904) with a final volume of 80 μL of medium and at density of 3000 cells per well. 12 to 24 hrs after plating, 20 μL of each compound dilution series were transferred to plates containing the cells, resulting in compound concentration ranges of 2700 nM to 3.7 nM by 3-fold dilutions and a final DMSO concentration of 0.16%. The total volume in each well was […]. Plates were incubated for 72 hrs and the effects of compounds on cell proliferation was determined using the CellTiter-Glo™ Luminescent Cell Viability Assay (CTG, Promega) and a Victor™ X4 plate reader (Perkin Elmer). For real-time growth assays cells were seeded into xCELLigence E-plates (Roche catalogue number 05232368001) at a density of 4000 cells per well in a total of 90 μl of media and 24 hrs after plating, 11 μl of media with or without compound was added to the wells. 2-4 replicate wells were plated for all cell lines and treatment groups with the exception of LGX818+FGF2 treated COLO 741 cells (N=1). Where indicated final concentrations of compounds and growth factor were 1 uM for Compound H, 100 ng/ml for FGF2, and either 100 nM (SK-MEL-5) or 500 nM (COLO 741) for the Compound of Formula (I). Cells were continuously monitored every two hours for seven days with the xCELLigence real-time impedance based cell analyzer. Impedance was measured using the electrodes on the E-plates, with increasing surface area coverage of cells creating greater electrode impedance. […] In all cases cell index values were normalized to a timepoint immediately following the addition of compound.
# (§4) To determine whether FGFRs can rescue a subset of BRAFV600E mutant melanoma cell lines treated with the Compound of Formula (I), its anti-proliferative effects were examined in eleven T1799 mutant BRAF cell lines either in the presence or absence of the FGFR-activating ligand FGF2. […] Thus, the presence of FGF2 is able to rescue a set of BRAFV600E melanoma-derived cell lines from the anti-proliferative effects of the B-Raf inhibitor of Formula (I). Furthermore, similar effects are also observed in BRAFV600E mutant cell lines derived from CRC tumors.
# (§5) Mutant (mut) and wildtype (wt) status was determined from published data. […] PTEN mut designations represent a summary call based on mutation, gene copy number, and mRNA expression information for the PTEN gene.
# COLO 741 = conditions: Homo sapiens
# Protocol: as §1, §2, §3, §4, §5
# LS411N = conditions: Homo sapiens, LS-411N
# Protocol: as §1, §2, §3, §4, §5
# WM-266-4 = conditions: Homo sapiens, WM-266-4 (V600D)
# Protocol: as §1, §2, §3, §4, §5
# SW1417 = conditions: Homo sapiens
# Protocol: as §1, §2, §3, §4, §5
# COLO-800 = conditions: Homo sapiens
# Protocol: as §1, §2, §3, §4, §5
# SK-MEL-5 = conditions: Homo sapiens
# Protocol: as §1, §2, §3, §4, §5
# COLO 205 = conditions: Homo sapiens
# Protocol: as §1, §2, §3, §4, §5
# CL-34 = system: CL-34
# Protocol: as §1, §2, §3, §4, §5
# SK-MEL-24 = conditions: Homo sapiens
# Protocol: as §1, §2, §3, §4, §5
# UACC-62 = conditions: Homo sapiens
# Protocol: as §1, §2, §3, §4, §5
# [1] = with 100 ng/ml FGF2, read-out: LGX818 + FGF2 IC50
# [2] = without FGF2, read-out: LGX818 IC50
compound,measurement,setting,value
COC(=O)N[C@@H](C)CNc1nccc(-c2cn(C(C)C)nc2-c2cc(Cl)cc(NS(C)(=O)=O)c2F)n1 [Compound of Formula (I)],pIC50,MDST8; [1],≤ 5.00
same,pIC50,MDST8; [2],6.85
same,pIC50,"COLO 741; COLO 741, with 100 ng/ml FGF2, read-out: LGX818 + FGF2 IC50",5.58
same,pIC50,"COLO 741; COLO 741, without FGF2, read-out: LGX818 IC50",7.28
same,pIC50,LS411N; [1],≤ 5.03
same,pIC50,LS411N; [2],6.73
same,pIC50,WM-266-4; [1],8.40
same,pIC50,WM-266-4; [2],8.52
same,pIC50,"SW1417; SW1417, with 100 ng/ml FGF2, read-out: LGX818 + FGF2 IC50",6.44
same,pIC50,"SW1417; SW1417, without FGF2, read-out: LGX818 IC50",6.78
same,pIC50,"COLO-800; COLO-800, with 100 ng/ml FGF2, read-out: LGX818 + FGF2 IC50",7.92
same,pIC50,"COLO-800; COLO-800, without FGF2, read-out: LGX818 IC50",8.05
same,pIC50,"SK-MEL-5; SK-MEL-5, with 100 ng/ml FGF2, read-out: LGX818 + FGF2 IC50",< 6.00
same,pIC50,"SK-MEL-5; SK-MEL-5, without FGF2, read-out: LGX818 IC50",7.82
same,pIC50,"COLO 205; Colo 205, with 100 ng/ml FGF2, read-out: LGX818 + FGF2 IC50",8.30
same,pIC50,"COLO 205; Colo 205, without FGF2, read-out: LGX818 IC50",8.40
same,pIC50,"CL-34; CL-34, without FGF2, read-out: LGX818 IC50",7.42
same,pIC50,CL-34; read-out: LGX818 + FGF2 IC50,6.14
same,pIC50,"SK-MEL-24; SK-MEL-24, with 100 ng/ml FGF2, read-out: LGX818 + FGF2 IC50",6.43
same,pIC50,"SK-MEL-24; SK-MEL-24, without FGF2, read-out: LGX818 IC50",6.33
same,pIC50,"UACC-62; UACC-62, with 100 ng/ml FGF2, read-out: LGX818 + FGF2 IC50",8.40
same,pIC50,"UACC-62; UACC-62, without FGF2, read-out: LGX818 IC50",8.70
